According to US20250333397A1 (REMIX THERAPEUTICS INC., priority 2021, published 2025):
Like-named read-outs stand apart in the source and are kept apart here.

How the values were obtained:
Assay type in all cases: cell-based, human
MYB mRNA = assay: RT-qPCR splicing assay, MYB canonical (CJ) and alternative (AJ) junction mRNA; conditions: for AC50: read-out: MYB AJ (AC50, increase in AJ mRNA)
How it was run: (§1)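 A673 (DMEM/10% FBS) or K562 (IMDM/10% FBS) cells treated 24 h at 37 °C with 11-point 3-fold dilutions, top 10 uM final, DMSO ≤0.25%. Lysates read by one-step RT-qPCR for CJ and AJ isoforms, normalized to GAPDH, GUSB or PPIA. ΔΔCt vs DMSO gives RQ via 2^(-ΔΔCt).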

SMN2 mRNA = assay: RT-qPCR splicing assay panel, SMN2 canonical junction (CJ) mRNA; conditions: canonical junction (CJ) mRNA, RT-qPCR panel, Table 4A, read-out: SMN2, decrease in CJ mRNA levels, IC50
How it was run: as §1

HTT mRNA = assay: RT-qPCR splicing assay, HTT canonical (CJ) and alternative (AJ) junction mRNA; conditions: for AC50: read-out: HTT AJ (AC50, increase in AJ mRNA)
How it was run: as §1

Target C mRNA = assay: RT-qPCR splicing assay panel, Target C canonical junction (CJ) mRNA; conditions: canonical junction (CJ) mRNA, RT-qPCR panel, Table 4A, read-out: Target C, decrease in CJ mRNA levels, IC50
How it was run: as §1

[1] = Table 3A, A673 or K562 cells, 24 h treatment
[2] = Homo sapiens, 24 h, Table 3A, A673 or K562 cells, 24 h treatment
[3] = Homo sapiens, 24 h, Table 3A, A673 or K562 cells, 24 h treatment, read-out: MYB CJ (IC50, decrease in CJ mRNA)
[4] = Homo sapiens, canonical junction (CJ) mRNA, RT-qPCR panel, Table 4A, read-out: MYB, decrease in CJ mRNA levels, IC50
[5] = Homo sapiens, 24 h, Table 3A, A673 or K562 cells, 24 h treatment, read-out: HTT CJ (IC50, decrease in CJ mRNA)
[6] = Homo sapiens, canonical junction (CJ) mRNA, RT-qPCR panel, Table 4A, read-out: HTT, decrease in CJ mRNA levels, IC50

| Structure (SMILES) | AC50 (MYB mRNA; [1]) | IC50 (MYB mRNA; Table 3A, A673 or K562 cells, 24 h treatment, read-out: MYB CJ (IC50, decrease in CJ mRNA)) | IC50 (MYB mRNA; canonical junction (CJ) mRNA, RT-qPCR panel, Table 4A, read-out: MYB, decrease in CJ mRNA levels, IC50) | IC50 (SMN2 mRNA) | AC50 (HTT mRNA; [1]) | IC50 (HTT mRNA; Table 3A, A673 or K562 cells, 24 h treatment, read-out: HTT CJ (IC50, decrease in CJ mRNA)) | IC50 (HTT mRNA; canonical junction (CJ) mRNA, RT-qPCR panel, Table 4A, read-out: HTT, decrease in CJ mRNA levels, IC50) | IC50 (Target C mRNA) | AC50 (MYB mRNA; [2]) | IC50 (MYB mRNA; [3]) | IC50 (MYB mRNA; [4]) | IC50 (SMN2 mRNA; Homo sapiens) | AC50 (HTT mRNA; [2]) | IC50 (HTT mRNA; [5]) | IC50 (HTT mRNA; [6]) | IC50 (Target C mRNA; Homo sapiens) |
| --- | --- | --- | --- | --- | --- | --- | --- | --- | --- | --- | --- | --- | --- | --- | --- | --- |
| COc1cc(-c2ccc(-c3ccc(N4CC[C@@H](NC5(C)CC5)C4)nn3)c(O)c2)cnn1 [Compound 266, 5-(6-methoxypyridazin-4-yl)-2-{6-[(3R)-3-[(1-methylcyclopropyl)amino]pyrrolidin-1-yl]pyridazin-3-yl}phenol] | 100 to 1000 nM | 100 to 1000 nM | 100 to 1000 nM | < 100 nM | < 100 nM | < 100 nM | < 100 nM | 100 to 1000 nM |  |  |  |  |  |  |  |  |
| Cc1nc(C#N)c(-c2cc(O)c(-c3ccc(N4CC[C@H](NC5CCC5)C4)nn3)cc2F)s1 [Compound 429] |  |  |  |  |  |  |  |  | 1000 to 10000 nM | 1000 to 10000 nM | 1000 to 10000 nM | 100 to 1000 nM | 100 to 1000 nM | 100 to 1000 nM | 100 to 1000 nM | 100 to 1000 nM |
| Cc1cc(-c2ccc(-c3ccc(N4CCC(NC5CCC5)C4)nn3)c(O)c2)cc2cn(C)nc12 (centres unmarked) [Compound 318] |  |  |  |  |  |  |  |  | > 10000 nM | 1000 to 10000 nM | 1000 to 10000 nM | 100 to 1000 nM | 100 to 1000 nM | 100 to 1000 nM | 100 to 1000 nM | 100 to 1000 nM |
| COc1cc(-c2ccc(-c3ccc(N4CCC(C)(NC5CCC5)C4)nn3)c(O)c2)cnn1 (centres unmarked) [Compound 275] |  |  |  |  |  |  |  |  | 100 to 1000 nM | 100 to 1000 nM | 100 to 1000 nM | < 100 nM | < 100 nM | < 100 nM | < 100 nM | < 100 nM |
| Cc1ncc(-c2cc(O)c(-c3ccc(N4CC[C@@H](NC5CCC5)C4)nn3)cc2F)o1 [Compound 228, 2-{6-[(3R)-3-(cyclobutylamino)pyrrolidin-1-yl]pyridazin-3-yl}-4-fluoro-5-(2-methyl-1,3-oxazol-5-yl)phenol] |  |  |  |  |  |  |  |  | 100 to 1000 nM | 100 to 1000 nM | 100 to 1000 nM | < 100 nM | 100 to 1000 nM | 100 to 1000 nM | 100 to 1000 nM | 100 to 1000 nM |
| CNc1cc(-c2ccc(-c3ccc(N4CC[C@H](NC(C)(C)C)C4)nn3)c(O)c2)ncn1 [Compound 436, 2-{6-[(3S)-3-(tert-butylamino)pyrrolidin-1-yl]pyridazin-3-yl}-5-[6-(methylamino)pyrimidin-4-yl]phenol] |  |  |  |  |  |  |  |  | 100 to 1000 nM | 100 to 1000 nM | 100 to 1000 nM | < 100 nM | < 100 nM | < 100 nM | < 100 nM | < 100 nM |
| Oc1cc(-c2ccc(-c3ccc(N4CC[C@H](NC5CCC5)C4)nn3)c(O)c2)cnn1 [Compound 420, 5-(4-{6-[(3S)-3-(cyclobutylamino)pyrrolidin-1-yl]pyridazin-3-yl}-3-hydroxyphenyl)pyridazin-3-ol] |  |  |  |  |  |  |  |  | > 10000 nM | 1000 to 10000 nM | 1000 to 10000 nM | 100 to 1000 nM | 1000 to 10000 nM | 100 to 1000 nM | 100 to 1000 nM | 1000 to 10000 nM |
| COc1cc(-c2ccc(-c3ccc(N4CC[C@@H](NC(C)(C)C)C4)nn3)c(O)c2)cnn1 [Compound 209, 2-{6-[(3R)-3-(tert-butylamino)pyrrolidin-1-yl]pyridazin-3-yl}-5-(6-methoxypyridazin-4-yl)phenol] |  |  |  |  |  |  |  |  | < 100 nM | < 100 nM | < 100 nM | < 100 nM | < 100 nM | < 100 nM | < 100 nM | < 100 nM |
| Cc1ccc(-c2ccc(-c3ccc(N4CC[C@@H](NC5CCC5)C4)nn3)c(O)c2)cn1 [Compound 293, 2-{6-[(3R)-3-(cyclobutylamino)pyrrolidin-1-yl]pyridazin-3-yl}-5-(6-methylpyridin-3-yl)phenol] |  |  |  |  |  |  |  |  | 100 to 1000 nM | 1000 to 10000 nM | 1000 to 10000 nM | < 100 nM | 100 to 1000 nM | 100 to 1000 nM | 100 to 1000 nM | 1000 to 10000 nM |
| COc1cc(-c2ccc(-c3ccc(N4CC[C@@H](N[C@H]5C[C@H](F)C5)C4)nn3)c(O)c2)ncn1 [Compound 427] |  |  |  |  |  |  |  |  | 1000 to 10000 nM | 1000 to 10000 nM | 1000 to 10000 nM | 100 to 1000 nM | 100 to 1000 nM | 100 to 1000 nM | 100 to 1000 nM | 1000 to 10000 nM |
| Oc1cc(-n2cnnc2)ccc1-c1ccc(N2CCC(NC3CCC3)C2)nn1 (centres unmarked) [Compound 345] |  |  |  |  |  |  |  |  | 1000 to 10000 nM | 1000 to 10000 nM | 1000 to 10000 nM | 100 to 1000 nM | 1000 to 10000 nM | 1000 to 10000 nM | 1000 to 10000 nM | > 10000 nM |
| CCc1cc(-c2ccc(-c3ccc(N4CC[C@H](NC5CCC5)C4)nn3)c(O)c2)cnn1 [Compound 278] |  |  |  |  |  |  |  |  | > 10000 nM | 1000 to 10000 nM | 1000 to 10000 nM | 1000 to 10000 nM | > 10000 nM | 1000 to 10000 nM | 1000 to 10000 nM | > 10000 nM |
| CC(C)(C)N[C@H]1CCN(c2ccc(-c3ccc(-c4cn[nH]c4)cc3O)nn2)C1 [Compound 261] |  |  |  |  |  |  |  |  | 100 to 1000 nM | 100 to 1000 nM | 100 to 1000 nM | < 100 nM | < 100 nM | < 100 nM | < 100 nM | < 100 nM |
| COc1cc(-c2ccc(-c3ccc(N4CC[C@H](NC(C)(C)C)C4)nn3)c(O)c2)ncn1 [Compound 283, 2-{6-[(3S)-3-(tert-butylamino)pyrrolidin-1-yl]pyridazin-3-yl}-5-(6-methoxypyrimidin-4-yl)phenol] |  |  |  |  |  |  |  |  | 100 to 1000 nM | 100 to 1000 nM | 100 to 1000 nM | < 100 nM | < 100 nM | < 100 nM | < 100 nM | < 100 nM |
| COc1cc(-c2ccc(-c3ccc(N4CC[C@](C)(NC5CCC5)C4)nn3)c(O)c2)ncn1 [Compound 365, 2-{6-[(3S)-3-(cyclobutylamino)-3-methylpyrrolidin-1-yl]pyridazin-3-yl}-5-(6-methoxypyrimidin-4-yl)phenol] |  |  |  |  |  |  |  |  | 100 to 1000 nM | 100 to 1000 nM | 100 to 1000 nM | < 100 nM | < 100 nM | < 100 nM | < 100 nM | < 100 nM |
| Cc1cnc(-c2cc(O)c(-c3ccc(N4CCC(NC5CCC5)C4)nn3)cc2F)s1 (centres unmarked) [Compound 367] |  |  |  |  |  |  |  |  | > 10000 nM | > 10000 nM | > 10000 nM | 1000 to 10000 nM | > 10000 nM | > 10000 nM | > 10000 nM | > 10000 nM |
